# Source: patent US5298495A, “Partricin derivatives” (SPA Societa' Prodotti Antibiotici SpA, priority 1990, dated 1994)
# Read-outs that look alike come from different tables or passages of the source.
# Tests used:
# C. albicans 73 = assay: Microbiological activity on C. albicans (MIC); assay type: cell-based; settings: Fluid Sab. Med, 36° C.; for MIC: Candida albicans, 73
# From the text: (§1) MIC (ng/ml) Hemolytic con.(mcg/ml)
# (§2) C. albicans 73 rat erytrocytes, […]
# rat erytrocytes = assay: Hemolytic activity on rat erythrocytes; assay type: cell-based
# From the text: as §1, §2
# [1] = Acute toxicity in mice (DL50); assay type: in vivo; settings: mouse, in vivo
# [2] = Solubility and reaction in water; assay type: physicochemical
# [3] = cited from earlier work
# mice = assay: Acute toxicity in mice (DL50); assay type: in vivo
# [4] = 24 h, read-out: MIC C. albicans 73, 24 h
# [5] = 48 h, read-out: MIC C. albicans 73, 48 h
# [6] = rat erytrocytes, 4 h at 37° C., minimum
# [7] = rat erytrocytes, 4 h at 37° C., total
Molecule,MIC (C. albicans 73; [4]) [mg/L],MIC (C. albicans 73; [5]) [mg/L],Hemolytic con. total (THC) (rat erytrocytes) [µg/mL],"Hemolytic con. min. (MHC) (rat erytrocytes; rat, 240 min) [µg/mL]","LD50 ([1]; ip, read-out: DL50 mice i.p.) [mg/kg]",other results
CNc1ccc(C(=O)CC(O)CCC(C)C2OC(=O)CC(O)CC(=O)CC(O)CC(O)CC(O)CC(O)CC3(O)CC(O)C(C(=O)NCCCN(C)C)C(CC(OC4OC(C)C(O)C(NC(=O)CN(C)C)C4O)C=CC=CC=CC=CC=CC=CC=CC2C)O3)cc1 (centres unmarked),0.015,0.03,10.4,0.2,12.4,
"CNc1ccc(C(=O)CC(O)CCC(C)C2OC(=O)CC(O)CC(=O)CC(O)CC(O)CC(O)CC(O)CC3(O)CC(O)C(C(=O)NCCN(C)C)C(CC(OC4OC(C)C(O)C(NC(=O)CN(C)C)C4O)C=CC=CC=CC=CC=CC=CC=CC2C)O3)cc1 (centres unmarked) [Example 5, N-DIMETHYLAMINOACETYL-PARTRICIN A 2-DIMETHYL-AMINOETHYLAMIDE DIASPARTATE]",,,,,,solubility in water [2]: soluble in water; pH of aqueous solution (almost neutral reaction) ([2]; in water): 6
"CNc1ccc(C(=O)CC(O)CCC(C)C2OC(=O)CC(O)CC(=O)CC(O)CC(O)CC(O)CC(O)CC3(O)CC(O)C(C(=O)NCCN(C)C)C(CC(OC4OC(C)C(O)C(NC(=O)CN(C)C)C4O)C=CC=CC=CC=CC=CC=CC=CC2C)O3)cc1 (centres unmarked) [Partr. A, COCH2N(CH3)2, NHCH2 CH2N(CH3)2, N-dimethylaminoacetyl-partricin A 2-dimethylaminoethylamide]",0.0075,0.015,> 18,18,158,"LD50 ([1]; iv, read-out: DL50 mice i.v.): 58 mg/kg"
"CNc1ccc(C(=O)CC(O)CCC(C)C2OC(=O)CC(O)CC(=O)CC(O)CC(O)CC(O)CC(O)CC3(O)CC(O)C(C(=O)N4CCN(CCO)CC4)C(CC(OC4OC(C)C(O)C(NC(=O)CN(C)C)C4O)C=CC=CC=CC=CC=CC=CC=CC2C)O3)cc1 (centres unmarked) [Partr. A, COCH2N(CH3)2, drawing 30]",0.0075,0.0212,0.7,0.2,,
"CNc1ccc(C(=O)CC(O)CCC(C)C2OC(=O)CC(O)CC(=O)CC(O)CC(O)CC(O)CC(O)CC3(O)CC(O)C(C(=O)N4CCN(C)CC4)C(CC(OC4OC(C)C(O)C(NC(=O)CN(C)C)C4O)C=CC=CC=CC=CC=CC=CC=CC2C)O3)cc1 (centres unmarked) [Partr. A, COCH2N(CH3)2, drawing 31]",0.0075,0.0212,,,3.6,Hemolytic con. min. (MHC) (rat erytrocytes; [6]): 0.2 µg/mL; Hemolytic con. total (THC) (rat erytrocytes; [7]): 2 µg/mL
"CNc1ccc(C(=O)CC(O)CCC(C)C2OC(=O)CC(O)CC(=O)CC(O)CC(O)CC(O)CC(O)CC3(O)CC(O)C(C(=O)NCCc4ccccn4)C(CC(OC4OC(C)C(O)C(NC(=O)CN(C)C)C4O)C=CC=CC=CC=CC=CC=CC=CC2C)O3)cc1 (centres unmarked) [Partr. A, COCH2N(CH3)2, drawing 50]",0.015,0.0424,> 18,18,> 300,"LD50 ([1]; iv, read-out: DL50 mice i.v.): 76.8 mg/kg"
"CNc1ccc(C(=O)CC(O)CCC(C)C2OC(=O)CC(O)CC(=O)CC(O)CC(O)CC(O)CC(O)CC3(O)CC(O)C(C(=O)OC)C(CC(OC4OC(C)C(O)C(NC(=O)CCN5CCCCC5)C4O)C=CC=CC=CC=CC=CC=CC=CC2C)O3)cc1 (centres unmarked) [Partr. A, drawing 32, OCH3]",0.0075,0.0424,18,3.5,> 30,
"CNc1ccc(C(=O)CC(O)CCC(C)C2OC(=O)CC(O)CC(=O)CC(O)CC(O)CC(O)CC(O)CC3(O)CC(O)C(C(=O)NCCN(C)C)C(CC(OC4OC(C)C(O)C(NC(=O)CCN5CCCCC5)C4O)C=CC=CC=CC=CC=CC=CC=CC2C)O3)cc1 (centres unmarked) [Partr. A, drawing 33, NHCH2 CH2N(CH3)2]",0.0075,0.03,18,6,43.6,
"CNc1ccc(C(=O)CC(O)CCC(C)C2OC(=O)CC(O)CC(=O)CC(O)CC(O)CC(O)CC(O)CC3(O)CC(O)C(C(=O)N4CCN(CCO)CC4)C(CC(OC4OC(C)C(O)C(NC(=O)CCN5CCCCC5)C4O)C=CC=CC=CC=CC=CC=CC=CC2C)O3)cc1 (centres unmarked) [Partr. A, drawing 34, drawing 35]",0.0075,0.03,2,0.2,,
"CNc1ccc(C(=O)CC(O)CCC(C)C2OC(=O)CC(O)CC(=O)CC(O)CC(O)CC(O)CC(O)CC3(O)CC(O)C(C(=O)N4CCN(C)CC4)C(CC(OC4OC(C)C(O)C(NC(=O)CCN5CCCCC5)C4O)C=CC=CC=CC=CC=CC=CC=CC2C)O3)cc1 (centres unmarked) [Partr. A, drawing 36, drawing 37]",0.0075,0.015,3.5,0.2,,
"CNc1ccc(C(=O)CC(O)CCC(C)C2OC(=O)CC(O)CC(=O)CC(O)CC(O)CC(O)CC(O)CC3(O)CC(O)C(C(=O)OC)C(CC(OC4OC(C)C(O)C(NC(=O)CN5CCN(C)CC5)C4O)C=CC=CC=CC=CC=CC=CC=CC2C)O3)cc1 (centres unmarked) [Partr. A, drawing 38, OCH3]",0.015,0.03,18,0.7,29.3,
"CNc1ccc(C(=O)CC(O)CCC(C)C2OC(=O)CC(O)CC(=O)CC(O)CC(O)CC(O)CC(O)CC3(O)CC(O)C(C(=O)NCCN(C)C)C(CC(OC4OC(C)C(O)C(NC(=O)CN5CCN(C)CC5)C4O)C=CC=CC=CC=CC=CC=CC=CC2C)O3)cc1 (centres unmarked) [Partr. A, drawing 39, NHCH2 CH2N(CH3)2]",0.0106,0.03,18,2,> 100,
"CNc1ccc(C(=O)CC(O)CCC(C)C2OC(=O)CC(O)CC(=O)CC(O)CC(O)CC(O)CC(O)CC3(O)CC(O)C(C(=O)N4CCN(CCO)CC4)C(CC(OC4OC(C)C(O)C(NC(=O)CN5CCN(C)CC5)C4O)C=CC=CC=CC=CC=CC=CC=CC2C)O3)cc1 (centres unmarked) [Partr. A, drawing 40, drawing 41]",0.015,0.0212,2,0.2,,
"CNc1ccc(C(=O)CC(O)CCC(C)C2OC(=O)CC(O)CC(=O)CC(O)CC(O)CC(O)CC(O)CC3(O)CC(O)C(C(=O)N4CCN(C)CC4)C(CC(OC4OC(C)C(O)C(NC(=O)CN5CCN(C)CC5)C4O)C=CC=CC=CC=CC=CC=CC=CC2C)O3)cc1 (centres unmarked) [Partr. A, drawing 42, drawing 43]",0.0075,0.0212,,,3.8,Hemolytic con. min. (MHC) (rat erytrocytes; [6]): 0.2 µg/mL; Hemolytic con. total (THC) (rat erytrocytes; [7]): 0.7 µg/mL
"CNc1ccc(C(=O)CC(O)CCC(C)C2OC(=O)CC(O)CC(=O)CC(O)CC(O)CC(O)CC(O)CC3(O)CC(O)C(C(=O)OC)C(CC(OC4OC(C)C(O)C(NC(=O)CN5CCN(CCO)CC5)C4O)C=CC=CC=CC=CC=CC=CC=CC2C)O3)cc1 (centres unmarked) [Partr. A, drawing 44, OCH3]",0.015,0.03,18,0.7,> 30,
"CNc1ccc(C(=O)CC(O)CCC(C)C2OC(=O)CC(O)CC(=O)CC(O)CC(O)CC(O)CC(O)CC3(O)CC(O)C(C(=O)NCCN(C)C)C(CC(OC4OC(C)C(O)C(NC(=O)CN5CCN(CCO)CC5)C4O)C=CC=CC=CC=CC=CC=CC=CC2C)O3)cc1 (centres unmarked) [Partr. A, drawing 45, NHCH2 CH2N(CH3)2]",0.0075,0.0212,18,0.7,> 100,
"CNc1ccc(C(=O)CC(O)CCC(C)C2OC(=O)CC(O)CC(=O)CC(O)CC(O)CC(O)CC(O)CC3(O)CC(O)C(C(=O)N4CCN(CCO)CC4)C(CC(OC4OC(C)C(O)C(NC(=O)CN5CCN(CCO)CC5)C4O)C=CC=CC=CC=CC=CC=CC=CC2C)O3)cc1 (centres unmarked) [Partr. A, drawing 46, drawing 47]",0.0106,0.0212,0.7,0.2,,
"CNc1ccc(C(=O)CC(O)CCC(C)C2OC(=O)CC(O)CC(=O)CC(O)CC(O)CC(O)CC(O)CC3(O)CC(O)C(C(=O)N4CCN(C)CC4)C(CC(OC4OC(C)C(O)C(NC(=O)CN5CCN(CCO)CC5)C4O)C=CC=CC=CC=CC=CC=CC=CC2C)O3)cc1 (centres unmarked) [Partr. A, drawing 48, drawing 49]",0.0075,0.015,0.7,0.2,,
"CNc1ccc(C(=O)CC(O)CCC(C)C2OC(=O)CC(O)CC(=O)CC(O)CC(O)CC(O)CC(O)CC3(O)CC(O)C(C(=O)NCCc4ccccn4)C(CC(OC4OC(C)C(O)C(NC(=O)CCN5CCCCC5)C4O)C=CC=CC=CC=CC=CC=CC=CC2C)O3)cc1 (centres unmarked) [Partr. A, drawing 51, drawing 52]",0.03,0.06,> 18,6,> 300,"LD50 ([1]; iv, read-out: DL50 mice i.v.): 109 mg/kg"
mepartricin,,,,,,"solubility in water of mepartricin (words, background) [3]: water-insoluble"
"mepartricin [Partr., H, OCH3, reference compound]",,,,,,"MIC C. albicans 73, 24 h (C. albicans 73; 24 h): 0.0075 mg/L; MIC C. albicans 73, 48 h (C. albicans 73; 48 h): 0.03 mg/L; Hemolytic con. min. (MHC) (rat erytrocytes; [6]): 0.7 µg/mL; Hemolytic con. total (THC) (rat erytrocytes; [7]): 18 µg/mL; DL50 mice i.p. (mice): 15.8 mg/kg; DL50 mice i.v. (mice; i.v.): 5.02 mg/kg"
"partricin [Partr., H, OH, reference compound]",,,,,,"MIC C. albicans 73, 24 h (C. albicans 73; 24 h): 0.03 mg/L; MIC C. albicans 73, 48 h (C. albicans 73; 48 h): 0.06 mg/L; Hemolytic con. min. (MHC) (rat erytrocytes; [6]): < 0.2 µg/mL; Hemolytic con. total (THC) (rat erytrocytes; [7]): < 0.2 µg/mL; DL50 mice i.p. (mice): 0.63 mg/kg"
